Data reported in US9247759B2, “Identification of human T2R receptors that respond to bitter compounds that elicit the bitter taste in compositions, and the use thereof in assays to identify compounds that inhibit (block) bitter taste in compositions and use thereof” (SENOMYX, INC., priority 2007, dated 2016).
pIC50: −log10 of the molar value. Read-outs that look alike come from different tables or passages of the source.

Tests used:
hT2R8 = hT2R8 (Homo sapiens (Human), UniProt Q9NYW2); assay: hT2R8 antagonist high-throughput FLIPR assay, stable cell line with G16g44, agonist andrographolide; format: cell-based
hT2R8, sequence (Q9NYW2 whole entry): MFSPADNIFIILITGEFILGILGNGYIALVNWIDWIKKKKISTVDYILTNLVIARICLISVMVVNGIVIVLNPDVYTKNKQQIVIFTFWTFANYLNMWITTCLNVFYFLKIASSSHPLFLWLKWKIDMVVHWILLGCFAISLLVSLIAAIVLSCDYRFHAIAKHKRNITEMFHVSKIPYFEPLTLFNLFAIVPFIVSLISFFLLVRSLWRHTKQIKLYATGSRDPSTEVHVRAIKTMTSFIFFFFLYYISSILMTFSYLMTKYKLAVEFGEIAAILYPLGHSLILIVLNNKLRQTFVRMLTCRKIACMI
How it was run: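 HEK293 cells stably co-expressing hT2R8 and chimeric G16g44, read on FLIPR. Test compounds added together with andrographolide (200 μM), which drives the receptor to 70–80% of maximal activity; antagonism seen as reduced agonist response.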

[1] = test system: bitter taste of instant coffee; assay: 2-alternative forced choice taste test, instant coffee with hT2R8 antagonists; format: in vivo, human; conditions: antagonist 5 μM
Description: Taste tests were performed with hT2R8 antagonists in instant coffee using a 2-alternative forced choice method with a taste panel of 15-20 panelists. Coffee samples with the antagonists were given to the taste panelists together with the same sample without antagonists, the panelists were asked to identify the bitterer sample within the pair.

hT2R71 = hT2R71 (Homo sapiens (Human), UniProt P59536); assay: hT2R panel inhibition, transient HEK293 G16g44, agonist Picric Acid 10 μM; format: cell-based; conditions: HEK293, compound at 25 μM; receptor activated to EC80 with the corresponding agonist; read-out: screening result against bitter receptor 71
hT2R71, sequence (P59536 whole entry): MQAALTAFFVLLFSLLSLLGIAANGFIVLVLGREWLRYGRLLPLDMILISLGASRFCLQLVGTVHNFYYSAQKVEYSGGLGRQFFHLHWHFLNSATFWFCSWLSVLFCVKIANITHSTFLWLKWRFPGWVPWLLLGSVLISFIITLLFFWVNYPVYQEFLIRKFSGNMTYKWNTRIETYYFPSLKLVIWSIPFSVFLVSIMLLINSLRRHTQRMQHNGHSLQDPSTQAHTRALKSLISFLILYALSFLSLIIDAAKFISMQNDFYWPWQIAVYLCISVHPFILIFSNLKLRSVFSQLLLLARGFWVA
How it was run: (§1)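 Each human T2R transiently transfected into HEK293 cells stably expressing G16g44; functional receptor assays run with the listed bitter agonist at EC80 concentration. Inhibition recorded as reduction of agonist-induced receptor activity in presence of Compound C.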

hT2R44 = assay: hT2R panel inhibition, transient HEK293 G16g44, agonist Denatonium 0.5 μM; format: cell-based, human; conditions: compound at 25 μM; receptor activated to EC80 with the corresponding agonist
How it was run: as §1

hT2R55 = assay: hT2R panel inhibition, transient HEK293 G16g44, agonist Cinchonine 150 μM; format: cell-based, human; conditions: compound at 25 μM; receptor activated to EC80 with the corresponding agonist
How it was run: as §1

hT2R63 = assay: hT2R panel inhibition, transient HEK293 G16g44, agonist Caffeine 1 mM or Andrographolide 100 μM; format: cell-based, human; conditions: compound at 25 μM; receptor activated to EC80 with the corresponding agonist
How it was run: as §1

hT2R75 = hT2R75 (Homo sapiens (Human), UniProt P59540); assay: hT2R panel inhibition, transient HEK293 G16g44, agonist Strychnine 1 μM; format: cell-based; conditions: HEK293, read-out: screening result against bitter receptor 75, compound at 25 μM; receptor activated to EC80 with the corresponding agonist
hT2R75, sequence (P59540 whole entry): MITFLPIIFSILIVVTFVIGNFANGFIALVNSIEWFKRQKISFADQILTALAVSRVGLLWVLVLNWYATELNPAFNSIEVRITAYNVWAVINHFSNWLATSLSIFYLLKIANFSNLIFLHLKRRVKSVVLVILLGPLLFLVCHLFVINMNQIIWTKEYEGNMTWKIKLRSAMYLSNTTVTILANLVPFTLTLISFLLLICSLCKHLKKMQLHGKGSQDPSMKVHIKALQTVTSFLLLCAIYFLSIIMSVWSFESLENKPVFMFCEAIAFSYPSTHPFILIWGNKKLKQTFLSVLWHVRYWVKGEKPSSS

hT2R16 = hT2R16 (Homo sapiens (Human), UniProt Q9NYV7); assay: hT2R panel inhibition, transient HEK293 G16g44, agonist Salicin 1 mM; format: cell-based; conditions: HEK293, compound at 25 μM; receptor activated to EC80 with the corresponding agonist; read-out: screening result against bitter receptor 16
hT2R16, sequence (Q9NYV7 whole entry): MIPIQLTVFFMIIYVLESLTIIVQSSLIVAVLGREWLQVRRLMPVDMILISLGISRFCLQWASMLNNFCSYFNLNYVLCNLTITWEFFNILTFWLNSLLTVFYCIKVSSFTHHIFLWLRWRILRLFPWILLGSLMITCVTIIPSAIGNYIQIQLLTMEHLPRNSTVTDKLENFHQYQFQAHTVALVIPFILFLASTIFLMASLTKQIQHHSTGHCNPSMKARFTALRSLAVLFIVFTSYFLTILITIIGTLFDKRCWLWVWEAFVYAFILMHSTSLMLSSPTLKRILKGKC
How it was run: as §1

hT2R64 = hT2R64 (Homo sapiens (Human), UniProt P59538); assay: hT2R panel inhibition, transient HEK293 G16g44, agonist Aristolochic Acid 1 μM; format: cell-based; conditions: HEK293, compound at 25 μM; receptor activated to EC80 with the corresponding agonist; read-out: screening result against bitter receptor 64
hT2R64, sequence (P59538 whole entry): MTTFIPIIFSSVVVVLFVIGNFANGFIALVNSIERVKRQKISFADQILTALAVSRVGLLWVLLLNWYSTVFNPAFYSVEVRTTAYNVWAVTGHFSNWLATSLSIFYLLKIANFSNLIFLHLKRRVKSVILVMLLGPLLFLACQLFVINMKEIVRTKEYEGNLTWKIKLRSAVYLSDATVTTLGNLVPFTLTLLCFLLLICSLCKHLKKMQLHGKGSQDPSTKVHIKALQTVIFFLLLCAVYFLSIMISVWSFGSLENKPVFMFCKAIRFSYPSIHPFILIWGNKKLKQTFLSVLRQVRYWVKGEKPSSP
How it was run: as §1

hT2R10 = hT2R10 (Homo sapiens (Human), UniProt Q9NYW0); assay: hT2R panel inhibition, transient HEK293 G16g44, agonist Strychnine 50 μM; format: cell-based; conditions: HEK293, read-out: screening result against bitter receptor 10, compound at 25 μM; receptor activated to EC80 with the corresponding agonist
hT2R10, sequence (Q9NYW0 whole entry): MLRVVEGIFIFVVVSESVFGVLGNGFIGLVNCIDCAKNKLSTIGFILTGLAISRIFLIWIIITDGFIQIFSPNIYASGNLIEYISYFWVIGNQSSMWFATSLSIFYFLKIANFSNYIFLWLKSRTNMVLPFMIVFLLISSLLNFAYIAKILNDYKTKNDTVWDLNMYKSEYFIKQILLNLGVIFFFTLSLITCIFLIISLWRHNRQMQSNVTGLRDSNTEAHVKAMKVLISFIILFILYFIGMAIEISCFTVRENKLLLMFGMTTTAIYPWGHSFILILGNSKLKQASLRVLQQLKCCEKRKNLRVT

hT2R14 [2] = molecular target: T1, hT2R14 (Homo sapiens (Human), UniProt Q9NYV8); assay: hT2R panel inhibition, transient HEK293 G16g44, agonist Aristolochic Acid 2 μM; format: cell-based; conditions: HEK293, compound at 25 μM; receptor activated to EC80 with the corresponding agonist; read-out: screening result against bitter receptor 14
T1 sequence (Q9NYV8 whole entry): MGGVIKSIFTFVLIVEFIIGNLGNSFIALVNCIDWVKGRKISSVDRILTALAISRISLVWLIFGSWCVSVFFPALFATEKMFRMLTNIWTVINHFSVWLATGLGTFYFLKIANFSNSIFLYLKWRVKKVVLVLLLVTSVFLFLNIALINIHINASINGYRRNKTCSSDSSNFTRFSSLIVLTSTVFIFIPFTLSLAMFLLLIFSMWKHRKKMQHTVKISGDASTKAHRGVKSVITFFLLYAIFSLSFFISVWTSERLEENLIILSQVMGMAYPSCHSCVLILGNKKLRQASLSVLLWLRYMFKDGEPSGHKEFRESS
How it was run: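 Each hT2R was transiently transfected into HEK293 cells stably expressing G16g44 and assayed functionally for inhibition of agonist response. Agonists were applied at EC80: andrographolide at 0.5 mM for hT2R8 and aristolochic acid at 2 μM for hT2R14.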

hT2R4 = hT2R4 (Homo sapiens (Human), UniProt Q9NYW5); assay: hT2R panel inhibition, transient HEK293 G16g44, agonist Chloroquine pH6.5 5 mM; format: cell-based; conditions: HEK293, compound at 25 μM; receptor activated to EC80 with the corresponding agonist; class symbols; read-out: screening result against bitter receptor 4
hT2R4, sequence (Q9NYW5 whole entry): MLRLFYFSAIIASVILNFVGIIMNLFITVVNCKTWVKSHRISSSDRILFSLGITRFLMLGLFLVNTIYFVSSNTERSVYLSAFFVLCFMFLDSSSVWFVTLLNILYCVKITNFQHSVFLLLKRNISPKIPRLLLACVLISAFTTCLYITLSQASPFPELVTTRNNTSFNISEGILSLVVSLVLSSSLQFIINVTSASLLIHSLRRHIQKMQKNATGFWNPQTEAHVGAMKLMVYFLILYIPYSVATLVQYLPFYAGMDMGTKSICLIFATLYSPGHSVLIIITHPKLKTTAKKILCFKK
How it was run: as §1

hT2R7 = hT2R7 (Homo sapiens (Human), UniProt Q9NYW3); assay: hT2R panel inhibition, transient HEK293 G16g44, agonist Chloroquine pH6.5 10 mM; format: cell-based; conditions: HEK293, compound at 25 μM; receptor activated to EC80 with the corresponding agonist; read-out: screening result against bitter receptor 7
hT2R7, sequence (Q9NYW3 whole entry): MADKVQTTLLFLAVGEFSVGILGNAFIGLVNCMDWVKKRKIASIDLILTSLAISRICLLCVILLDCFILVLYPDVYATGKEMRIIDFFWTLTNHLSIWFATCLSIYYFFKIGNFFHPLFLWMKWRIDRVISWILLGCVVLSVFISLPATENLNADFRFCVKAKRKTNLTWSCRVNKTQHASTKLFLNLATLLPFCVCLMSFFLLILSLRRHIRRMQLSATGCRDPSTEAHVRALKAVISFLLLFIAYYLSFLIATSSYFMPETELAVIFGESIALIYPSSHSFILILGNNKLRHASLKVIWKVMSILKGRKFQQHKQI
How it was run: as §1

hT2R61 = hT2R61 (Homo sapiens (Human), UniProt P59537); assay: hT2R panel inhibition, transient HEK293 G16g44, agonist Aristolochic Acid 25 nM; format: cell-based; conditions: HEK293, compound at 25 μM; receptor activated to EC80 with the corresponding agonist; read-out: screening result against bitter receptor 61
hT2R61, sequence (P59537 whole entry): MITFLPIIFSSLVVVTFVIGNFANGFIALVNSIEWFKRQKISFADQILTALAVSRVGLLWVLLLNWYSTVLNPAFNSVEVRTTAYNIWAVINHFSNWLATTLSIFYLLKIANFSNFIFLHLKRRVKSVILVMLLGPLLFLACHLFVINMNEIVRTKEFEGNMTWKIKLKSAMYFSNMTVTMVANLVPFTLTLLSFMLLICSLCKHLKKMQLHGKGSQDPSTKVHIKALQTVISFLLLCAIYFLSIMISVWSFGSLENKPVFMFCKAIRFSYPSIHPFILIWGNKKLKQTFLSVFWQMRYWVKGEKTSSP
How it was run: as §1

hT2R54 = assay: hT2R panel inhibition, transient HEK293 G16g44, agonist Ranitidine 5 mM; format: cell-based, human; conditions: compound at 25 μM; receptor activated to EC80 with the corresponding agonist
How it was run: as §1

hT2R5 = hT2R5 (Homo sapiens (Human), UniProt Q9NYW4); assay: hT2R panel inhibition, transient HEK293 G16g44, agonist Picoline 10 mM; format: cell-based; conditions: HEK293, compound at 25 μM; receptor activated to EC80 with the corresponding agonist; read-out: screening result against bitter receptor 5
hT2R5, sequence (Q9NYW4 whole entry): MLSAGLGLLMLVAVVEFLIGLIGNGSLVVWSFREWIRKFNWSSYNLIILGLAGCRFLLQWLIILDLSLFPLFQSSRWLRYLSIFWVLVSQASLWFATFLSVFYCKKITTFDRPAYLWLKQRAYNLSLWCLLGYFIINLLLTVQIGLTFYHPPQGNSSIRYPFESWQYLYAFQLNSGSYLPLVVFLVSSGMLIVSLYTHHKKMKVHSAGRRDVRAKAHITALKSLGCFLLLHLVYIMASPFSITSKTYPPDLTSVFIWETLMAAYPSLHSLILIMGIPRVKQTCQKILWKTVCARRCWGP
How it was run: as §1

hT2R65 = assay: hT2R panel inhibition, transient HEK293 G16g44, agonist Oleuropein 1 mM; format: cell-based, human; conditions: compound at 25 μM; receptor activated to EC80 with the corresponding agonist
How it was run: as §1

hT2R3 = hT2R3 (Homo sapiens (Human), UniProt Q9NYW6); assay: hT2R panel inhibition, transient HEK293 G16g44, agonist Chloroquine pH6.5 50 μM; format: cell-based; conditions: HEK293, compound at 25 μM; receptor activated to EC80 with the corresponding agonist; read-out: screening result against bitter receptor 3
hT2R3, sequence (Q9NYW6 whole entry): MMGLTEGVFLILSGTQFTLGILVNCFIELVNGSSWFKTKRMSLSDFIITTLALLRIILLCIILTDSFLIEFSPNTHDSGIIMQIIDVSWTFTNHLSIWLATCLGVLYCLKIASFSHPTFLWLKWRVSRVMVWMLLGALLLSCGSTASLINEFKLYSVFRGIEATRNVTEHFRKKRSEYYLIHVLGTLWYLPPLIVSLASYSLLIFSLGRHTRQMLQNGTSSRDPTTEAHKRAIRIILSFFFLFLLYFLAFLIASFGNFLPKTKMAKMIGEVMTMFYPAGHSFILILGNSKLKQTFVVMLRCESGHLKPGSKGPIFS
How it was run: as §1

hT2R51 = hT2R51 (Homo sapiens (Human), UniProt P59533); assay: hT2R panel inhibition, transient HEK293 G16g44, agonist Prop 2.5 μM; format: cell-based; conditions: HEK293, compound at 25 μM; receptor activated to EC80 with the corresponding agonist; read-out: screening result against bitter receptor 51
hT2R51, sequence (P59533 whole entry): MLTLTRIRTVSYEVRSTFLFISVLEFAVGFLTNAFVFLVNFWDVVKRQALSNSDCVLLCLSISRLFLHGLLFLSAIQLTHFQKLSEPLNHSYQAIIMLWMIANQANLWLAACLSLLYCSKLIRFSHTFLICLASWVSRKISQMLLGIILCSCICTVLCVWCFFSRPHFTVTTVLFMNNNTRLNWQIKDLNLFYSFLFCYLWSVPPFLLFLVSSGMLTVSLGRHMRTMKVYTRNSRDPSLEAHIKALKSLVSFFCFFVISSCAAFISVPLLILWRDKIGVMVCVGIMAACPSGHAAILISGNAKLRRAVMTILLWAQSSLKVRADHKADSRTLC
How it was run: as §1

hT2R67 = assay: hT2R panel inhibition, transient HEK293 G16g44, agonist Andrographolide 5 μM; format: cell-based, human; conditions: compound at 25 μM; receptor activated to EC80 with the corresponding agonist
How it was run: as §1

hT2R14 [3] = molecular target: T1, hT2R14; assay: hT2R14 antagonist high-throughput FLIPR assay, stable cell line with G16g44, agonist aristolochic acid; format: cell-based; conditions: read-out: IC50 on hT2R14 bitter receptor
How it was run: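 HEK293 cells stably expressing hT2R14 with chimeric G16g44 were stimulated with aristolochic acid (3 μM), giving 70-80% of maximal receptor activity. Test compounds were added together with the agonist, and antagonism was read as fluorescent calcium signal on FLIPR.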

[4] = read-out: IC50 on hT2R8 bitter receptor
[5] = table after Example 10-97, read-out: hT2R8 IC50

| SMILES | pIC50 (hT2R8; [4]) | melting point [°C] | also measured |
| --- | --- | --- | --- |
| COc1cc(O)cc(CN2C(=O)N(c3cnn(Cc4c(C)noc4C)c3)C(=O)C2(C)C)c1 [Example 12-17, 3-(1-((3,5-dimethylisoxazol-4-yl)methyl)-1H-pyrazol-4-yl)-1-(3-hydroxy-5-methoxybenzyl)-5,5-dimethylimidazolidine-2,4-dione] | 7.70 | 72 to 74 | Selected as bitterer: With antagonists [1]: 3; Selected as bitterer: Without antagonists [1]: 17 |
| Cc1noc(C)c1Cn1cc(N2C(=O)N(Cc3cccc(O)c3)C(C)(C)C2=O)cn1 [Example 12-1, 3-(1-((3,5-dimethylisoxazol-4-yl)methyl)-1H-pyrazol-4-yl)-1-(3-hydroxybenzyl)-5,5-dimethylimidazolidine-2,4-dione] | 7.30 | – | Selected as bitterer: With antagonists [1]: 2; Selected as bitterer: Without antagonists [1]: 14 |
| COc1ccc(CN(Cc2ccco2)S(=O)(=O)c2ccc(C(=O)O)cc2)cc1 [Example 5-2, 4-(N-(furan-2-ylmethyl)-N-(4-methoxybenzyl)sulfamoyl)benzoic acid] | – | 151 to 152 | inhibition at 25 µM (hT2R71): 60 to 80%; screening result against bitter receptor 44 (hT2R44): +++ (60% to 80% inhibition = +++); screening result against bitter receptor 55 (hT2R55): ++++ (80% or greater inhibition = ++++); screening result against bitter receptor 63 (hT2R63): ++++ (80% or greater inhibition = ++++); inhibition at 25 µM (hT2R75): 20 to 40%; inhibition at 25 µM (hT2R16): 60 to 80%; inhibition at 25 µM (hT2R64): 60 to 80%; inhibition at 25 µM (hT2R10): 60 to 80%; inhibition at 25 µM (hT2R14 [2]): > 80%; inhibition at 25 µM (hT2R4): 20 to 40%; inhibition at 25 µM (hT2R7): 40 to 60%; inhibition at 25 µM (hT2R61): > 80%; screening result against bitter receptor 54 (hT2R54): + (20% to 40% inhibition = +); inhibition at 25 µM (hT2R5): 20 to 40%; screening result against bitter receptor 65 (hT2R65): + (20% to 40% inhibition = +); inhibition at 25 µM (hT2R3): 40 to 60%; inhibition at 25 µM (hT2R51): 40 to 60%; screening result against bitter receptor 67 (hT2R67): + (20% to 40% inhibition = +); pIC50 (hT2R14 [3]): 6.23 |
| Cc1noc(C)c1Cn1cc(NC(=O)C(C)c2ccccc2)cn1 (stereo not drawn) [Example 4-5, N-(1-((3,5-dimethylisoxazol-4-yl)methyl)-1H-pyrazol-4-yl)-2-phenylpropanamide] | 6.49 | 129 to 130 | – |
| COc1ccccc1CCN1CC(=O)N(c2cnn(Cc3c(C)noc3C)c2)C1=O [Example 10-76, 3-(1-((3,5-dimethylisoxazol-4-yl)methyl)-1H-pyrazol-4-yl)-1-(2-methoxyphenethyl)imidazolidine-2,4-dione] | 6.85 | 97 to 98 | pIC50 (hT2R8; [5]): 7.01 |
| Cc1noc(C)c1Cn1cc(N2C(=O)CN(CCOc3ccccc3)C2=O)cn1 [Example 10-5, 3-(1-((3,5-dimethylisoxazol-4-yl)methyl)-1H-pyrazol-4-yl)-1-(2-phenoxyethyl)imidazolidine-2,4-dione] | 7.22 | 117 to 118 | pIC50 (hT2R8; [5]): 7.20 |
| Cc1noc(C)c1Cn1cc(NC(=O)c2scc(S(C)(=O)=O)c2Cl)cn1 [Example 4-2, 3-chloro-N-(1-((3,5-dimethylisoxazol-4-yl)methyl)-1H-pyrazol-4-yl)-4-(methylsulfonyl)thiophene-2-carboxamide] | 5.68 | 202 to 204 | – |
| Cc1noc(C)c1Cn1cc(NC(=O)Cc2ccccc2)cn1 [Example 4-6, N-(1-((3,5-dimethylisoxazol-4-yl)methyl)-1H-pyrazol-4-yl)-2-phenylacetamide] | 6.28 | 106 to 108 | – |
| COc1cccc(C(=O)Nc2cnn(Cc3c(C)noc3C)c2)c1 [Example 4-7, N-(1-((3,5-dimethylisoxazol-4-yl)methyl)-1H-pyrazol-4-yl)-3-methoxybenzamide] | 6.41 | 127 to 129 | – |
| Cc1noc(C)c1Cn1cc(NC(=O)[C@@H](C)c2ccccc2)cn1 [Example 4-3, (S)—N-(1-((3,5-dimethylisoxazol-4-yl)methyl)-1H-pyrazol-4-yl)-2-phenylpropanamide] | 6.39 | 108 to 110 | – |
| Cc1noc(C)c1Cn1cc(N2C(=O)N(Cc3cccc(CO)c3)C(C)(C)C2=O)cn1 [Example 12-34, 3-(1-((3,5-dimethylisoxazol-4-yl)methyl)-1H-pyrazol-4-yl)-1-(3-(hydroxymethyl)benzyl)-5,5-dimethylimidazolidine-2,4-dione] | 6.96 | – | Selected as bitterer: With antagonists [1]: 3; Selected as bitterer: Without antagonists [1]: 13 |
| Cc1noc(C)c1Cn1cc(N2C(=O)CN(CCc3ccccc3)C2=O)cn1 [Example 10-78, 3-(1-((3,5-dimethylisoxazol-4-yl)methyl)-1H-pyrazol-4-yl)-1-phenethylimidazolidine-2,4-dione] | 6.85 | 95 to 96 | pIC50 (hT2R8; [5]): 6.86 |
| COc1cc(CC(=O)Nc2cnn(Cc3c(C)noc3C)c2)cc(OC)c1O [Example 4-4, N-(1-((3,5-dimethylisoxazol-4-yl)methyl)-1H-pyrazol-4-yl)-2-(4-hydroxy-3,5-dimethoxyphenyl)acetamide] | 6.34 | 187 to 188 | – |
| Cc1noc(C)c1Cn1cc(N2C(=O)c3ccccc3C2=O)cn1 [Example 9-1, 2-(1-((3,5-dimethylisoxazol-4-yl)methyl)-1H-pyrazol-4-yl)isoindoline-1,3-dione] | 6.74 | 170 to 171 | – |
| COc1cccc(CN2C(=O)N(c3cnn(Cc4c(C)noc4C)c3)C(=O)C2(C)C)c1 [Example 12-32, 3-(1-((3,5-dimethylisoxazol-4-yl)methyl)-1H-pyrazol-4-yl)-1-(3-methoxybenzyl)-5,5-dimethylimidazolidine-2,4-dione] | 7.10 | 107 to 108 | – |
| COc1ccc(CN2C(=O)N(c3cnn(Cc4c(C)noc4C)c3)C(=O)C2(C)C)cc1O [Example 12-2, 3-(1-((3,5-dimethylisoxazol-4-yl)methyl)-1H-pyrazol-4-yl)-1-(3-hydroxy-4-methoxybenzyl)-5,5-dimethylimidazolidine-2,4-dione] | 7.22 | – | Selected as bitterer: With antagonists [1]: 2; Selected as bitterer: Without antagonists [1]: 14 |
| Cc1noc(C)c1Cn1cc(N2C(=O)NC(Cc3ccccc3)C2=O)cn1 (stereo not drawn) [Example 10-2, 5-benzyl-3-(1-((3,5-dimethylisoxazol-4-yl)methyl)-1H-pyrazol-4-yl)imidazolidine-2,4-dione] | 6.74 | 169 to 171 | – |
